The values that follow come from patent publication US9512132B2, “Pyrazole compounds as CB2 agonists” (Hoffmann-La Roche Inc., priority 2013, dated 2016).

The target of assay [1] is human CB2 receptor (Homo sapiens (Human), UniProt P34972). The experiment in a line: cAMP assay, CHO cells expressing human CB2 receptors. In kind it is cell-based. As to the method: (§1) CHO cells expressing human CB1 or CB2 receptors are seeded 17-24 hours prior to the experiment 50.000 cells per well in a black 96 well plate with flat clear bottom (Corning Costar #3904) in DMEM (Invitrogen No. 31331), lx HT supplement, with 10% fetal calf serum and incubated at 5% CO2 and 37° C. in a humidified incubator. The growth medium was exchanged with Krebs Ringer Bicarbonate buffer with 1 mM IBMX and incubated at 30° C. for 30 min. Compounds were added to a final assay volume of 100 μl and incubated for 30 min at 30° C. Using the cAMP-Nano-TRF detection kit the assay (Roche Diagnostics) was stopped by the addition of 50 μl lysis reagent (Tris, NaCl, 1.5% Triton X100, 2.5% NP40, 10% NaN3) and 50 μl detection solutions (20 μM mAb Alexa700-cAMP 1:1, and 48 μM Ruthenium-2-AHA-cAMP) and shaken for 2 h at room temperature. The time-resolved energy transfer is measured by a TRF reader (Evotec Technologies GmbH), equipped with a ND:YAG laser as excitation source. The plate is measured twice with the excitation at 355 nm and at the emission with a delay of 100 ns and a gate of 100 ns, total exposure time 10 s at 730 (bandwidth 30 nm) or 645 nm (bandwidth 75 nm), respectively. The FRET signal is calculated as follows: FRET=T730-Alexa730-P(T645-B645) with P=Ru730-B730/Ru645-B645, where T730 is the test well measured at 730 nM, T645 is the test well measured at 645 nm, B730 and B645 are the buffer controls at 730 nm and 645 nm, respectively. cAMP content is determined from the function of a standard curve spanning from 10 μM to 0.13 nM cAMP.
(§2) EC50 values were determined using Activity Base analysis (ID Business Solution, Limited). The EC50 values for a wide range of cannabinoid agonists generated from this assay were in agreement with the values published in the scientific literature.
A general note: cAMP levels reflect the balance of adenylyl cyclase and phosphodiesterase activity.

In assay [2] the target is human CB1 receptor (Homo sapiens (Human), UniProt P21554). The experiment in a line: cAMP assay, CHO cells expressing human CB1 receptors. In kind it is cell-based. The procedure:
as §1, §2

The mark [3] stands for this setting: functional cAMP assay, CHO cells expressing human CB2, read-out: human CB2 EC50.
The mark [4] stands for this setting: functional cAMP assay, CHO cells expressing human CB1, read-out: human CB1 EC50.

pEC50: −log10 of the molar value. Read-outs that look alike come from different tables or passages of the source.

Chain of human CB2 receptor (P34972 whole entry): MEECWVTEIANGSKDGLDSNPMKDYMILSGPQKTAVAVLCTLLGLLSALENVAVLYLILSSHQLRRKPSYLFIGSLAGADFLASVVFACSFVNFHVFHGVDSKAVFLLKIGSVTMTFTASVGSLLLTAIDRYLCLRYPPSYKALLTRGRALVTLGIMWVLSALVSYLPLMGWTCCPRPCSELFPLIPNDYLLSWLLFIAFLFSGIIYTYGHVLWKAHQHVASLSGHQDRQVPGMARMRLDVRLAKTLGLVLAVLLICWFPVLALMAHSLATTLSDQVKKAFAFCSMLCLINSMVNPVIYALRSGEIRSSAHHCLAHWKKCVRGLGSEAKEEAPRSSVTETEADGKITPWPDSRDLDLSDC
Chain of human CB1 receptor (P21554 whole entry): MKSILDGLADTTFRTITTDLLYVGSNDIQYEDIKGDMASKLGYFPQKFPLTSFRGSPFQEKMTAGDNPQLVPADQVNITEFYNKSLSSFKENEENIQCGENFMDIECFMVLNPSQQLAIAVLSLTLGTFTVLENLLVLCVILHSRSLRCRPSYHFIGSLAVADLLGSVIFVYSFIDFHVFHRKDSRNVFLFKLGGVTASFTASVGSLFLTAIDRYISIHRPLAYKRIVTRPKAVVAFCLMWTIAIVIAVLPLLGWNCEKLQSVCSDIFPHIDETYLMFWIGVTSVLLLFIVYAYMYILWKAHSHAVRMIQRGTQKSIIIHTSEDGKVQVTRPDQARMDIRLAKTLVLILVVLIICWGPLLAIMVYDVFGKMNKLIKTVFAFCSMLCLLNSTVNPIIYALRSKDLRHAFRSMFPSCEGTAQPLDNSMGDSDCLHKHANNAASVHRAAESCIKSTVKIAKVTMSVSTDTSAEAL

In general, pEC50 refers to −log10 of the EC50, conventionally taken in molar units. For the compound `COc1ccc(Cn2ncc3c(N4CCC(F)(F)C4)nc(C(C)(C)C)nc32)cc1` [Example 1, 6-tert-Butyl-4-(3,3-difluoro-pyrrolidin-1-yl)-[(4-methoxyphenyl)methyl]-1H-pyrazolo[3,4-d]pyrimidine], the pEC50 is 8.32 in assay [1] (setting [3]) and below 5.00 in assay [2] (setting [4]).

Consider `CC(C)(C)c1nc(N2CCC(F)(F)C2)c2cnn(Cc3ccccc3)c2n1` [Example 2, 1-Benzyl-6-tert-butyl-4-(3,3-difluoro-pyrrolidin-1-yl)-1H-pyrazolo[3,4-d]pyrimidine], for which the pEC50 was 8.48 in assay [1] (setting [3]) and below 5.00 in assay [2] (setting [4]).

On to `CC(C)(C)c1nc(N2CC[C@H](O)C2)c2cnn(Cc3ccccc3Cl)c2n1` [Example 3, (S)-1-[6-tert-Butyl-1-[(2-chlorophenyl)methyl]-1H-pyrazolo[3,4-d]pyrimidin-4-yl]-pyrrolidin-3-ol], for which the figures for the pEC50 in assay [1] (setting [3]) and in assay [2] (setting [4]) were 8.29 and below 5.00, respectively.

For the compound `CC(C)(C)c1nc(N2CCC(F)(F)C2)c2cnn(Cc3ccccc3Cl)c2n1` [Example 4, 6-tert-Butyl-1-[(2-chlorophenyl)methyl]-4-(3,3-difluoro-pyrrolidin-1-yl)-1H-pyrazolo[3,4-d]pyrimidine], the values for the pEC50 in assay [1] (setting [3]) and in assay [2] (setting [4]) were 8.38 and below 5.00, respectively.

Consider `CCOc1nc(C(C)(C)C)nc2c1cnn2Cc1ccccc1Cl` [Example 5, 6-tert-Butyl-1-[(2-chlorophenyl)methyl]-4-ethoxy-1H-pyrazolo[3,4-d]pyrimidine], for which the pEC50 in assay [1] (setting [3]) is 7.59; in assay [2] (setting [4]), below 5.00.

On to `CC(C)(C)c1nc(N2CCC(F)(F)C2)c2cnn(Cc3ccc(F)cc3Cl)c2n1` [Example 6, 6-tert-Butyl-1-[(2-chloro-4-fluorophenyl)methyl]-4-(3,3-difluoro-pyrrolidin-1-yl)-1H-pyrazolo[3,4-d]pyrimidine], for which the pEC50 in assay [1] (setting [3]) is 8.23; in assay [2] (setting [4]) it was below 5.00.

Regarding `CC(C)(C)c1nc(N2CCC(F)(F)C2)c2cnn(Cc3ccccc3C(F)(F)F)c2n1` [Example 7, 6-tert-Butyl-4-(3,3-difluoro-pyrrolidin-1-yl)-1-[(2-trifluoromethylphenyl)methyl]-1H-pyrazolo[3,4-d]pyrimidine], the pEC50 is 8.96 in assay [1] (setting [3]) and below 5.00 in assay [2] (setting [4]).

Consider `CC(C)(C)c1nc(N2CCC(F)(F)C2)c2cnn(CCc3ccccc3)c2n1` [Example 8, 6-tert-Butyl-4-(3,3-difluoro-pyrrolidin-1-yl)-1-phenethyl-1H-pyrazolo[3,4-d]pyrimidine], for which the pEC50 is 8.27 in assay [1] (setting [3]) and below 5.00 in assay [2] (setting [4]).

Turning to `Cc1nonc1Cn1ncc2c(N3CCC(F)(F)C3)nc(C(C)(C)C)nc21` [Example 9, 6-tert-Butyl-4-(3,3-difluoro-pyrrolidin-1-yl)-1-(4-methyl-furazan-3-ylmethyl)-1H-pyrazolo[3,4-d]pyrimidine], the pEC50 in assay [1] (setting [3]) is 9.30; in assay [2] (setting [4]) it was below 5.00.

`CC(C)(C)c1nc(N2CCC(F)(F)C2)c2cnn(Cc3ccccc3S(C)(=O)=O)c2n1` [Example 10, 6-tert-Butyl-4-(3,3-difluoro-pyrrolidin-1-yl)-1-(2-methanesulfonyl-benzyl)-1H-pyrazolo[3,4-d]pyrimidine]: the negative-log EC50 (pEC50) was 9.15 in assay [1] (setting [3]) and 6.47 in assay [2] (setting [4]).

Regarding `CC(C)(C)c1nc(N2CCC(F)(F)C2)c2cnn(Cc3cccnc3Cl)c2n1` [Example 12, 6-tert-Butyl-1-(2-chloro-pyridin-3-ylmethyl)-4-(3,3-difluoro-pyrrolidin-1-yl)-1H-pyrazolo[3,4-d]pyrimidine], the pEC50 is 8.80 in assay [1] (setting [3]) and 5.80 in assay [2] (setting [4]).

In the case of `CC(C)(C)c1nc(N2CCC(F)(F)C2)c2cnn(C3CS(=O)(=O)C3)c2n1` [Example 13, 6-tert-Butyl-4-(3,3-difluoro-pyrrolidin-1-yl)-1-(1,1-dioxo-1λ^6-thietan-3-yl)-1H-pyrazolo[3,4-d]pyrimidine], the pEC50 is 7.71 in assay [1] (setting [3]) and below 5.00 in assay [2] (setting [4]).

`CC(C)(C)c1nc(N2CCC(F)(F)C2)c2cnn(C3CCOC3)c2n1` (centres unmarked) [Example 14, 6-tert-Butyl-4-(3,3-difluoro-pyrrolidin-1-yl)-1-(tetrahydro-furan-3-yl)-1H-pyrazolo[3,4-d]pyrimidine]: the pEC50 in assay [1] (setting [3]) is 8.89; in assay [2] (setting [4]) it was below 5.00.

Consider `Cn1nnnc1Cn1ncc2c(N3CCC(F)(F)C3)nc(C(C)(C)C)nc21` [Example 15, 6-tert-Butyl-4-(3,3-difluoro-pyrrolidin-1-yl)-1-(1-methyl-1H-tetrazol-5-ylmethyl)-1H-pyrazolo[3,4-d]pyrimidine], for which the values for the pEC50 in assay [1] (setting [3]) and in assay [2] (setting [4]) were 9.05 and below 5.00, respectively.

For `CC(C)(C)c1nc(N2CCC(F)(F)C2)c2cnn(Cc3nnnn3C3CC3)c2n1` [Example 16, 6-tert-Butyl-1-(1-cyclopropyl-1H-tetrazol-5-ylmethyl)-4-(3,3-difluoro-pyrrolidin-1-yl)-1H-pyrazolo[3,4-d]pyrimidine], the results for the pEC50 in assay [1] (setting [3]) and in assay [2] (setting [4]) were 9.22 and below 5.00, respectively.

On to `Cc1nnc(Cn2ncc3c(N4CCC(F)(F)C4)nc(C(C)(C)C)nc32)n1C` [Example 17, 6-tert-Butyl-4-(3,3-difluoro-pyrrolidin-1-yl)-1-(4,5-dimethyl-4H-[1,2,4]triazol-3-ylmethyl)-1H-pyrazolo[3,4-d]pyrimidine], for which the negative logarithm of the EC50 (pEC50) in assay [1] (setting [3]) is 8.52; in assay [2] (setting [4]) it was below 5.00.

As to `Cc1nnc(Cn2ncc3c(N4CC=C(F)C4)nc(C(C)(C)C)nc32)n1C` [Example 18, 6-tert-Butyl-1-(4,5-dimethyl-4H-[1,2,4]triazol-3-ylmethyl)-4-(3-fluoro-2,5-dihydro-pyrrol-1-yl)-1H-pyrazolo[3,4-d]pyrimidine], the pEC50 in assay [1] (setting [3]) is 7.58; in assay [2] (setting [4]), below 5.00.

For the compound `Cn1nncc1Cn1ncc2c(N3CCC(F)(F)C3)nc(C(C)(C)C)nc21` [Example 19, 6-tert-Butyl-4-(3,3-difluoro-pyrrolidin-1-yl)-1-(3-methyl-3H-[1,2,3]triazol-4-ylmethyl)-1H-pyrazolo[3,4-d]pyrimidine], the pEC50 in assay [1] was 8.85; in assay [2] it was below 5.00.

With `Cn1nncc1Cn1ncc2c(N3CC=C(F)C3)nc(C(C)(C)C)nc21` [Example 20, 6-tert-Butyl-4-(3-fluoro-2,5-dihydro-pyrrol-1-yl)-1-(3-methyl-3H-[1,2,3]triazol-4-ylmethyl)-1H-pyrazolo[3,4-d]pyrimidine], the pEC50 in assay [1] (setting [3]) is 8.80; in assay [2] (setting [4]) it was below 5.00.

Take `CC(C)(C)c1nc(N2CCC(F)(F)C2)c2cnn(CC(=O)c3ccncc3)c2n1` [Example 21, 2-[6-tert-Butyl-4-(3,3-difluoro-pyrrolidin-1-yl)-pyrazolo[3,4-d]pyrimidin-1-yl]-1-pyridin-4-yl-ethanone]: the pEC50 in assay [1] (setting [3]) is 8.47; in assay [2] (setting [4]), below 5.00.

Consider `CC(C)(C)c1nc(N2CCC(F)(F)C2)c2cnn(CC(=O)c3ccccn3)c2n1` [Example 22, 2-[6-tert-Butyl-4-(3,3-difluoro-pyrrolidin-1-yl)-pyrazolo[3,4-d]pyrimidin-1-yl]-1-pyridin-2-yl-ethanone], for which the pEC50 in assay [1] (setting [3]) is 8.08; in assay [2] (setting [4]), below 5.00.

For the compound `COc1ccc(Cn2ncc3c(N4CC[C@H](O)C4)nc(C(C)(C)C)nc32)cc1` [Example 23, (S)-1-[6-tert-Butyl-1-[(4-methoxyphenyl)methyl]-1H-pyrazolo[3,4-d]pyrimidin-4-yl]-pyrrolidin-3-ol], the negative-log EC50 (pEC50) in assay [1] (setting [3]) was 8.26; in assay [2] (setting [4]), below 5.00.
